Entries after “also recorded” stand apart in the source; their conditions may differ.
Experiments:
[1] = tested on: SKL cells; experiment: HSPC homing to bone marrow in vivo; parameters: species or system mouse; conditions: for increase in in vivo marrow homing efficiency: pulse-exposed grafts or purified SKL cells, 16 hours post-transplant; for SKL cells homed to the marrow: vs vehicle-treated or un-manipulated cells
Procedure: CD45.2 WBM was labeled with CFSE (Molecular Probes, Eugene, Oreg.) washed and treated on ice with either 1 microMolar dmPGE2 or vehicle. After treatment, cells were washed and 2×10^7 cells transplanted into lethally irradiated CD45.2 mice. After 16 hours, femurs and tibias were flushed, and a proportion of mouse marrow Lin^+ cells depleted using MACS microbeads (Miltenyi Biotech), stained with fluorochrome-conjugated-antibodies specific for biotin (lineage), c-kit (K), and Sca-1 (S) and the total number of CFSE^+ WBM (non lineage depleted), KL and SKL cells determined. For congenic homing studies, Lin^neg CD45.1 cells were treated on ice with 1 microMolar dmPGE2, vehicle, or PBS. After incubation, cells were washed and 2×10^6 cells transplanted into CD45.2 mice. After 16 hours, recipient bone marrow was harvested, lineage depleted, stained, and donor CD45.1 SKL cells determined. For competitive, head-to-head homing studies using sorted SKL cells, Lin^neg cells from CD45.2 and CD45.1 mice were FACS sorted, cells treated with either dmPGE2 or vehicle for 2 hours, washed and 3×10^4 CD45.1 (vehicle or dmPGE2 treated) plus 3×10^4 CD45.2 (dmPGE2 or vehicle treated) SKL cells transplanted into lethally irradiated F1 Hybrid mice. To evaluate the role of CXCR4 in homing studies, Lin^neg CD45.2 cells were treated on ice with vehicle or 1 microMolar dmPGE2 plus 10 microMolar AMD3100 (AnorMed Inc., Vancouver, BC, Canada) and 2×10^6 treated cells injected into lethally irradiated CD45.1 mice. Homed SKL cells were analyzed 16 hours post-transplant.
Irrespective of its cause a marrow niche is required for HSPC to self-renew and differentiate and it is very likely that only HSPC homing to these niches can provide long-term repopulation. Referring now to FIG. 3A, in order to assess HSPC homing, CFSE labeled whole bone marrow (WBM) CD45.2 cells were pulsed with dmPGE2 or vehicle for 2 hours on ice, washed and injected IV in lethally irradiated CD45.2 hosts. After 16 hours, total CFSE^+ cells homing to bone marrow as well as the number of homed events within the KL and SKL cell populations were quantified.
Highly purified SKL cells from both CD45.2 and CD45.1 mice were isolated by FACS sorting, treated with dmPGE2 or vehicle, and 3×10^4 vehicle-treated CD45.1 cells plus 3×10^4 dmPGE2-treated CD45.2 cells transplanted into CD45.1/CD45.2 mice. An additional cohort was concurrently transplanted with congenic strain and treatment groups were switched to test for any bias in strain homing. […] Although SKL cells are not a homogenous HSPC population, they are highly enriched for LTRC (Okada et al., 1992; Spangrude and Scollay, 1990).
To evaluate the role of CXCR4 in homing, Lineage^neg CD45.2 cells were treated with vehicle or 1 microMolardmPGE2 plus 10 microMolar AMD3100, 2×10^6 treated cells injected into lethally-irradiated CD45.1 mice and homed SKL cells recovered 16 hours post-transplant and analyzed by FACS. Referring now to FIG. 11, homing efficiency of vehicle and dmPGE2 treated cells to bone marrow in the absence and presence of 10 microMolar AMD3100. Cells were incubated with AMD3100 for 30 minutes prior to the homing assay.

[2] = tested on: UCB CD34+ cells; experiment: Migration of human UCB CD34+ cells to rhSDF-1; assay type: cell-based; conditions: pulse exposure
Procedure: Freshly isolated UCB CD34^+ cells were pulsed with dmPGE2 or vehicle for 2 hours, washed and resuspended in media with 10% HI-FCS and cultured at 37° C. for 16 hours. After incubation, cells were washed, resuspended in RPMI/0.5% BSA and migration to rhSDF-1 measured by flow cytometry. To block the CXCR4 receptor, replicate cells were incubated with 5 micrograms/ml AMD3100 for 30 minutes prior to the migration assay. Referring now to FIG. 10, the data are the Mean±SEM percentage migration for 3 experiments.

[3] = tested on: Survivin in CD34+ UCB cells; experiment: Intracellular Survivin by FACS, human CD34+ UCB cells; assay type: cell-based; conditions: 24 hours post-pulse, vs control
From the text: All antibodies were purchased from BD Biosciences unless otherwise noted. For detection and sorting of murine KL and SKL cells, streptavidin conjugated with PE-Cy7 (to stain for biotinylated MACS lineage antibodies (Miltenyi Biotech, Auburn, Calif.)), c-kit-APC, Sca-1-PE or APC-Cy7, CD45. 1-PE and CD45.2-FITC were used. UCB CD34^+ cells were detected using anti-human-CD34-APC. For multilineage analysis, APC-Cy7-Mac-1, PE-Cy7-B-220 and APC-CD3 were used. EP receptors were detected with anti EP1, EP2, EP3 and EP4 rabbit IgG (Cayman Chemicals) and secondary staining with FITC-goat-anti-rabbit IgG (Southern Biotech, Birmingham, Ala.). CXCR4 expression was analyzed using streptavidin-PECy7, c-kit-APC, Sca-1-APC-Cy7, and CXCR4-PE. Apoptosis was measured with FITC-Annexin-V. For Survivin and active caspase-3 detection, cells were permeabilized and fixed using the CytoFix/CytoPerm kit (BD) and stained with anti-active-caspase-3-FITC Flow Kit (BD) or Survivin-PE (R&D Systems).
Expression of EP receptors, CXCR4 and Survivin Replicate Lin^neg cell samples from CD45.2 mice were stained for SKL and each of the EP receptors and surface receptor expression on KL and SKL cells determined by FACS. […] Replicate cells were stained for CD34 and each of the EP receptors and surface expression determined by FACS. […]

[4] = tested on: SKL cells; experiment: Transwell migration of murine SKL cells to rmSDF-1α; assay type: cell-based, mouse; conditions: pulsed 2 hours, cultured 16 hours, migration 4 hours; vs vehicle
Procedure: Freshly isolated Lineage^neg mouse bone marrow cells were pulsed with dmPGE2 or vehicle for 2 hours, washed and resuspended in media with 10% HI-FCS and cultured at 37° C. for 16 hours. After incubation, cells were washed, resuspended in RPMI/0.5% BSA and allowed to migrate in transwells to rmSDF-1α for 4 hours. Total cell migration was measured by flow cytometry. Referring now to FIG. 9, total SKL cell migration was higher for cells pulsed with dmPGE2. Data are the Mean±SEM percent migration for 3 experiments. ^†P<0.05 for dmPGE2 treated cells compared to cells treated with vehicle.

SMILES | increase in in vivo marrow homing efficiency [1] | SKL cells homed to the marrow ([1]; 16 hours) | migration of human CD34+ cells to SDF-1α [2] | percentage of CFSE+ cells homing to the marrow, total WBM cells ([1]; vs vehicle-treated cells, 16 hours) | increase in intracellular Survivin, CD34+ UCB cells [3] | total SKL cell migration to rmSDF-1α [4]
CCCCC[C@H](O)/C=C/[C@H]1[C@H](O)CC(=O)[C@@H]1C/C=C\CCCC(=O)O [PGE2, Prostaglandin E2] | ~2 fold | higher proportion | Increases Migration |  |  | 
CCCCC(C)(C)[C@H](O)/C=C/[C@H]1[C@H](O)CC(=O)[C@@H]1C/C=C\CCCC(=O)O [dmPGE2, 16,16-dimethyl prostaglandin E2] | 2 fold | significantly more SKL cells homed; also recorded: significantly greater percentage of SKL cells |  | No difference | 2.4 fold | higher
